Results as given in patent publication US20260374766A1, “METHODS FOR TREATING CANCER” (Antares Therapeutics, Inc., priority 2022, published 2026).
Where two headings read alike, the source gives them in different places.

Experiments:
[1] = target: T1, p53 Y220C mutant protein (amino acid residues 94-293) (Homo sapiens, UniProt P04637, Y220C); test: Surface Plasmon Resonance (SPR) assay, Kd_kinetic; type: binding; conditions: SPR, p53 Y220C, read-out: SPR P53 Y220C KD kinetic
T1 construct: p53 Y220C mutant protein (amino acid residues 94-293)
T1 sequence (P04637 94-293, stated change not applied): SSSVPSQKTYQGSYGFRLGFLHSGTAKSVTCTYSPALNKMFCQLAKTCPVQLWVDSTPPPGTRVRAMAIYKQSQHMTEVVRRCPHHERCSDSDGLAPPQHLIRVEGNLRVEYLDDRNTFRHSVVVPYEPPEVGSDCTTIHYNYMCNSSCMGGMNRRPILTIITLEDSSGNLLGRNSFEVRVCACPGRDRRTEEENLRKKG
Procedure, shortened: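 Biacore 8K SPR; 16 or 20 °C; Tris 50 mM pH 7.5, NaCl 100 mM, DTT 1 mM, Brij35 0.01%, Tween-20 0.05%, DMSO 1%. Kd_kinetic by 1:1 fit.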

p53 Y220C = p53 Y220C (Homo sapiens, UniProt P04637, Y220C); test: Luciferase Reporter Assay (Luc), p53 response element, NClH1299 cells with inducible p53 Y220C; type: cell-based; conditions: 6 hour; for AC50: read-out: Luc P53 Y220C AC50
Procedure, shortened: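 Steps: seed 5,000 cells/well; induce mutant p53 with 0.5 ug/mL doxycycline for 24 h; treat with compound 6 h; add equal volume One-Glo, shake 5 min at room temperature; measure luciferase immediately.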

NUGC3 p53 Y220C = test: Cell Proliferation Assay (CellTiter-Glo, CTG), NUGC3 p53 Y220C; type: cell-based; conditions: Homo sapiens, NUGC-3, 120 h, 5 days
Procedure, shortened: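 Tet-One inducible p53 Y220C or R273H constructs were stably introduced into NCI-H1299 by lentiviral transduction; NUGC3 was used as is. Cells (250-500 per well) were exposed to compound for 5 days, then CellTiter-Glo was added for 10 min at room temperature and IC50 was calculated from luminescence.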

H1299 p53 Y220C = test: Cell Proliferation Assay (CellTiter-Glo, CTG), H1299 p53 Y220C (NClH1299-inducible p53 Y220C); type: cell-based; conditions: Homo sapiens, NCI-H1299, 120 h, 5 days
Procedure, shortened: (§1)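 NClH1299 lines stably transduced with Tet-inducible p53 Y220C or R273H, plus NUGC3, were treated with compound for 5 days at 250-500 cells/well. IC50 derived from CellTiter-Glo luminescent signal after 10 min room-temperature incubation.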

H1299 p53 R273H = test: Cell Proliferation Assay (CellTiter-Glo, CTG), H1299 p53 R273H (NClH1299-inducible p53 R273H); type: cell-based; conditions: Homo sapiens, NCI-H1299, 120 h, 5 days
Procedure, shortened: as §1

[2] = AC50, luciferase reporter, NClH1299 inducible p53 Y220C
[3] = Emax, luciferase reporter, NClH1299 inducible p53 Y220C
[4] = NClH1299-inducible p53 Y220C cells, CellTiter-Glo
[5] = NClH1299-inducible p53 R273H cells, CellTiter-Glo
[6] = luciferase reporter, NClH1299 inducible p53 Y220C, 10 uM tool compound as positive control
[7] = luciferase reporter, NClH1299 inducible p53 Y220C
[8] = AC50, NClH1299 cells with inducible p53 Y220C
[9] = Emax, NClH1299 cells with inducible p53 Y220C, 10 uM tool compound as positive control
[10] = NClH1299-inducible p53 Y220C cells
[11] = NClH1299-inducible p53 R273H cells

Compound | Kd [1] [nM] | AC50 (p53 Y220C; [2]) [nM] | Emax (p53 Y220C; [3]) [%] | IC50 (NUGC3 p53 Y220C; NUGC3 cells, CellTiter-Glo) [nM] | IC50 (H1299 p53 Y220C; [4]) [nM] | IC50 (H1299 p53 R273H; [5]) [nM] | Kd ([1]; kinetic KD) [nM] | Emax (p53 Y220C; [6]) [%] | AC50 (p53 Y220C; [7]) [nM] | IC50 (NUGC3 p53 Y220C; CellTiter-Glo, NUGC3 p53 Y220C) [nM] | IC50 (H1299 p53 Y220C; CellTiter-Glo, H1299 p53 Y220C) [nM] | IC50 (H1299 p53 R273H; CellTiter-Glo, H1299 p53 R273H) [nM] | AC50 (p53 Y220C; [8]) [nM] | Emax (p53 Y220C; [9]) [%] | IC50 (NUGC3 p53 Y220C; NUGC3 cells) [nM] | IC50 (H1299 p53 Y220C; [10]) [nM] | IC50 (H1299 p53 R273H; [11]) [nM]
CNC(=O)c1cnc(OC)c(NCC#Cc2cc3c(N[C@@H]4CN(C)C[C@@H]4F)nccn3c2SC(F)(F)F)c1 [Example 330] | < 10 | < 750 | > 90 | < 750 | < 750 | ≥ 10000 | – | – | – | – | – | – | – | – | – | – | –
COc1cc(C(=O)NC[C@@H](C)O)ccc1NCC#Cc1cc2c(N[C@@H]3CCN(C)C[C@@H]3F)cccn2c1SC(F)(F)F [Example 416, 4-{[3-(8-{[(3S,4R)-3-fluoro-1-methylpiperidin-4-yl]amino}-3-[(trifluoromethyl)sulfanyl]indolizin-2-yl)prop-2-yn-1-yl]amino}-N-[(2R)-2-hydroxypropyl]-3-methoxybenzamide] | < 10 | < 750 | 80 to 90 | < 750 | < 750 | 5000 to 8000 | – | – | – | – | – | – | – | – | – | – | –
CNC(=O)c1ccc(OC)c(NCC#Cc2cc3c(N[C@@H]4CN(C)C[C@@H]4F)nccn3c2SC(F)(F)F)n1 [Example 211] | – | – | – | – | – | – | < 10 | 80 to 90 | < 750 | 750 to 1500 | < 750 | ≥ 10000 | – | – | – | – | –
COc1cc(C(=O)NCC(C)(C)O)ccc1NCC#Cc1cc2c(N[C@@H]3CCNC[C@@H]3F)cccn2c1SC(F)(F)F [Example 408] | < 10 | < 750 | 80 to 90 | < 750 | < 750 | 5000 to 8000 | – | – | – | – | – | – | – | – | – | – | –
O=C(NC[C@@H]1COCCO1)c1ccc(NCC#Cc2cc3c(N[C@@H]4CCNC[C@@H]4F)cccn3c2SC(F)(F)F)cc1 [Example 484] | < 10 | – | – | – | – | – | – | – | – | – | – | – | < 750 | > 90 | < 750 | < 750 | 8000 to 10000
COc1ccc(C(=O)N[C@H](C)[C@@H](C)O)cc1NCC#Cc1cc2c(N[C@@H]3CCN(C)C[C@@H]3F)cccn2c1SC(F)(F)F [Example 473] | < 10 | – | – | – | – | – | – | – | – | – | – | – | < 750 | > 90 | < 750 | < 750 | ≥ 10000
CN1CC[C@@H](Nc2cccn3c(SC(F)(F)F)c(C#CCNc4ccc(C(=O)NC[C@H](O)CO)cc4)cc23)[C@@H](F)C1 [Example 460] | < 10 | – | – | – | – | – | – | – | – | – | – | – | < 750 | > 90 | < 750 | < 750 | ≥ 10000
CNC(=O)c1cc(NCC#Cc2cc3c(N[C@@H]4CCN(C)C[C@@H]4F)cccn3c2SC(F)(F)F)c2nncn2c1 [Example 483, 8-{[3-(8-{[(3S,4R)-3-fluoro-1-methylpiperidin-4-yl]amino}-3-[(trifluoromethyl)sulfanyl]indolizin-2-yl)prop-2-yn-1-yl]amino}-N-methyl-[1,2,4]triazolo[4,3-a]pyridine-6-carboxamide] | < 10 | – | – | – | – | – | – | – | – | – | – | – | < 750 | > 90 | < 750 | < 750 | ≥ 10000
CNS(=O)(=O)c1ccc(OC)c(NCC#Cc2cc3c(N[C@@H]4CCN(C)C[C@@H]4F)cccn3c2SC(F)(F)F)c1 [Example 132, 3-{[3-(8-{[(3S,4R)-3-fluoro-1-methylpiperidin-4-yl]amino}-3-[(trifluoromethyl)sulfanyl]indolizin-2-yl)prop-2-yn-1-yl]amino}-4-methoxy-N-methylbenzenesulfonamide] | – | – | – | – | – | – | < 10 | 80 to 90 | < 750 | < 750 | < 750 | 5000 to 8000 | – | – | – | – | –
CNC(=O)c1ccc(NCC#Cc2nc3c(N[C@@H]4CCOC[C@@H]4F)cccn3c2SC(F)(F)F)c(OCCN(C)C)c1 [Example 226] | < 10 | 750 to 1500 | 70 to 80 | 750 to 1500 | 750 to 1500 | 5000 to 8000 | – | – | – | – | – | – | – | – | – | – | –
C[C@H](O)CNC(=O)c1ccc(NCC#Cc2cc3c(N[C@@H]4CCN(C)C[C@@H]4F)cccn3c2SC(F)(F)F)cc1 [Example 431] | < 10 | < 750 | > 90 | < 750 | < 750 | ≥ 10000 | – | – | – | – | – | – | – | – | – | – | –
C[C@@H](O)CNC(=O)c1ccc(NCC#Cc2cc3c(N[C@@H]4CCNC[C@@H]4F)cccn3c2SC(F)(F)F)cc1 [Example 397] | < 10 | < 750 | > 90 | < 750 | < 750 | 5000 to 8000 | – | – | – | – | – | – | – | – | – | – | –
COc1cc(C(=O)NCCN(C)C)ccc1NCC#Cc1nc2c(N[C@@H]3CCOC[C@@H]3F)cccn2c1SC(F)(F)F [Example 221] | – | – | – | – | – | – | < 10 | 70 to 80 | < 750 | < 750 | < 750 | < 5000 | – | – | – | – | –
CNC(=O)c1ccc(NCC#Cc2cc3c(N[C@@H]4CCN(C)C[C@@H]4F)cccn3c2SC(F)(F)F)c(C(=O)NC)n1 [Example 495, 3-{[3-(8-{[(3S,4R)-3-fluoro-1-methylpiperidin-4-yl]amino}-3-[(trifluoromethyl)sulfanyl]indolizin-2-yl)prop-2-yn-1-yl]amino}-N2,N6-dimethylpyridine-2,6-dicarboxamide] | < 10 | – | – | – | – | – | – | – | – | – | – | – | < 750 | > 90 | < 750 | < 750 | 5000 to 8000
CN1CC[C@@H](Nc2cccn3c(SC(F)(F)F)c(C#CCNc4cc(C(=O)NCC5(O)CC5)ccc4OC4COC4)cc23)[C@@H](F)C1 [Example 409] | < 10 | < 750 | > 90 | < 750 | < 750 | ≥ 10000 | – | – | – | – | – | – | – | – | – | – | –
CNC(=O)c1ccc(NCC#Cc2cc3c(N[C@@H]4CCN(C)C[C@@H]4F)nccn3c2SC(F)(F)F)c(O)c1 [Example 446, 4-{[3-(1-{[(3S,4R)-3-fluoro-1-methylpiperidin-4-yl]amino}-6-[(trifluoromethyl)sulfanyl]pyrrolo[1,2-a]pyrazin-7-yl)prop-2-yn-1-yl]amino}-3-hydroxy-N-methylbenzamide] | < 10 | < 750 | > 90 | < 750 | < 750 | ≥ 10000 | – | – | – | – | – | – | – | – | – | – | –
O=C(NC[C@@H]1CCO1)c1ccc(NCC#Cc2cc3c(N[C@@H]4CCNC[C@@H]4F)cccn3c2SC(F)(F)F)cc1 [Example 368] | < 10 | < 750 | 80 to 90 | < 750 | < 750 | 5000 to 8000 | – | – | – | – | – | – | – | – | – | – | –
CNC(=O)c1ccc(NCC#Cc2nn3c(N[C@@H]4CCN(C)C[C@@H]4F)ccnc3c2SC(F)(F)F)c(OC)c1 [Example 205] | – | – | – | – | – | – | 10 to 100 | < 70 | > 3000 | > 3000 | > 3000 | ≥ 10000 | – | – | – | – | –
COc1nc(P(C)(C)=O)ncc1NCC#Cc1cc2c(N[C@@H]3CCN(C)C[C@@H]3F)cccn2c1SC(F)(F)F [Example 445, 2-(3-{[2-(dimethylphosphoryl)-4-methoxypyrimidin-5-yl]amino}prop-1-yn-1-yl)-N-[(3S,4R)-3-fluoro-1-methylpiperidin-4-yl]-3-[(trifluoromethyl)sulfanyl]indolizin-8-amine] | < 10 | < 750 | > 90 | < 750 | < 750 | ≥ 10000 | – | – | – | – | – | – | – | – | – | – | –
COc1ccc(C(=O)N[C@@H](C)[C@H](C)O)cc1NCC#Cc1cc2c(N[C@@H]3CCN(C)C[C@@H]3F)cccn2c1SC(F)(F)F [Example 456] | < 10 | – | – | – | – | – | – | – | – | – | – | – | < 750 | > 90 | < 750 | < 750 | ≥ 10000
C[C@H](O)[C@H](C)NC(=O)c1ccc(NCC#Cc2cc3c(N[C@@H]4CCN(C)C[C@@H]4F)cccn3c2SC(F)(F)F)cc1 [Example 383] | < 10 | < 750 | > 90 | < 750 | < 750 | 8000 to 10000 | – | – | – | – | – | – | – | – | – | – | –
CNC(=O)c1cc(F)c(OC)c(NCC#Cc2cc3c(N[C@@H]4CCN(C)C[C@@H]4F)nccn3c2SC(F)(F)F)c1 [Example 337] | < 10 | < 750 | > 90 | < 750 | < 750 | < 5000 | – | – | – | – | – | – | – | – | – | – | –
